Legend:
decapitated mice = experiment: Breathing time, breathing frequency, brain index and brain water content in decapitated mice; type: in vivo, ICR mice; settings: 2 mg/kg tail i.v.
Experimental: The model group was administrated normal salt. At 15 minutes after administration, the mice were decapitated by a pair of scissors. The mouth breathing time, breathing frequency and brain water content were recorded and compared with other groups. Whole brains were collected. After the wet weight was obtained, they were dried in an oven at 100° C. for 24 hours. The average value was taken to calculate brain water content: brain water content (%)=[…]. Brain index: brain index=brain wet weight (g)/body weight (g)×100%.

brain of ischemic mice = experiment: Cerebral ischemia in mice with common carotid artery ligation and reperfusion (brain LDH and SOD); type: in vivo; settings: 2 mg/kg tail i.v.
Experimental: Grouped mice were respectively administered test substance, nimodipine or normal salt by tail intravenous injection. After 15 minutes, the mice were anesthetized with 3.5% chloral hydrate, fixed in the back. The right and left common carotid artery and vagus nerve were exposed, and 4-0 suture was inserted under the bilateral carotid artery. The suture was tightened to block blood flow for 5 minutes. Then the line was loosened to restore blood flow for 10 minutes. The operation was repeated three times, and an ischemia-reperfusion model in mice was established. After the last reperfusion, the mice were decapitated and brain collected. In the control group, only the bilateral carotid arteries were exposed, without a suture being inserted.

COCCOC(=O)C1=C(C)NC(C)=C(C(=O)OC(C)C)C1c1cccc([N+](=O)[O-])c1 (stereo not drawn) [Nimodipine, nimodipine]
Brain water content (decapitated mice): 75.8 ± 1.0 % | LDH (brain of ischemic mice): 11.3 ± 6.6 U/mg | SOD (brain of ischemic mice): 144.77 ± 21.61 U/mg

From patent US20090170801A1 (Beijing Century Biocom Pharmaceutical Technology Co. Ltd., priority 2006, published 2009)
